For this assay, the target named is T1, PFKFB3 (Homo sapiens, UniProt Q16875).
T1 construct: GST (cleaved yes); host or cells: Rosetta cells (bacteria)
The assay is described as follows: PFK-2 kinase activity assay (coupled PPi-PFK assay), recombinant PFKFB3. In kind it is biochemical. Particulars: recombinant PFKFB3, concentration course. On the procedure:
Recombinant Protein Expression: PFKFB2, PFKFB1, and PFKFB3 constructs (Origene) were subcloned into GST expression vector. Mutation of PFKFB2 at K174 to G [3], H259 to A [4], and the double mutant were created using Quickchange methodology. All constructs were transformed into Rosetta cells (Milipore), expressed and induced following standard protocol. Bacteria were harvested via centrifugation and pellets resuspended in 10 mL sonication buffer (50 mM TrisHCl pH 7.5, 10% glycerol, 150 mM NaCl, 10 mM Imidazole, 10 uL 1M DTT, and 1 protease inhibitor tablet). Cells were sonicated (power lvl 5, 45 s, 4×, QSonica) at 4° C. and spun 10 krpm for 10 min at 4° C. to collect protein lysate. […] Protein concentration was determined by Nanodrop (Thermo).
The resultant F-2,6-BP levels were determined by pyrophosphate-fructose-6-phosphate phosphotransferase (PPi-PFK) activity. After the preincubation phase, the F-2,6-BP/PFK2 mixture was diluted 10× by 50 mM pH 8.0 Tris assay buffer, supplemented with 5 mM Mg^2+, 0.5 mM PPi and 1 mM F-6-P. The PPi-PFK activity was measured as the rate of NADH oxidation (ε340=6200 M^−1 cm^−1) following the addition of 150 μM NADH to a mixture of excess PPi-PFK, 0.1 μg/mL triosephosphate isomerase, 10 μg/mL glycerol-3-phosphate dehydrogenase, and 0.01 U/mL aldolase. […]

Our source for the IC50 values is patent US20260102379A1, “Inhibitor of PFKFB2 Kinase Activity and Cellular Glycolysis” (Oklahoma Medical Research Foundation, priority 2024, published 2026).

T1 sequence (Q16875 whole entry, species assumed): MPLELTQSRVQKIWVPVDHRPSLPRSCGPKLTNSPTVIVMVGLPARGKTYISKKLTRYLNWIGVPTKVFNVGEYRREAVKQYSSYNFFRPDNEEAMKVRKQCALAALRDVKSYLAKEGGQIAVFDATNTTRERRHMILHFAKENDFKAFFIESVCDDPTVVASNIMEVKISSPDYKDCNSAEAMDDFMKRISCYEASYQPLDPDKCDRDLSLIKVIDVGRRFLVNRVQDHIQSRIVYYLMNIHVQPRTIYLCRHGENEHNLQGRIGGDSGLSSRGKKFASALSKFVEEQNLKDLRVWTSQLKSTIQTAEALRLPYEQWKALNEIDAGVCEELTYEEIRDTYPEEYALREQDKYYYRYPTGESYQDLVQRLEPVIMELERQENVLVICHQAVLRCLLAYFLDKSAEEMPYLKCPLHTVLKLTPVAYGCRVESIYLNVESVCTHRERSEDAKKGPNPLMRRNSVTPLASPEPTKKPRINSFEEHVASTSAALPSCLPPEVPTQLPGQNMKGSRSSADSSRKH

Turning to `COc1ccccc1Nc1nnc(S)s1` [B2, 5-[(2-methoxyphenyl)amino]-1,3,4-thiadiazole-2-thiol], the half-maximal inhibitory concentration (IC50) is 11.9 µM.

Consider `O=C(/C=C/c1ccc2ccc(C(F)(F)F)cc2n1)c1ccncc1` [PFK158], for which the IC50 came out at 8.94 µM.
